Results taken from ChEMBL document CHEMBL5154700, “Discovery of Gut-Restricted Small-Molecule Inhibitors of Intestinal Sodium-Dependent Phosphate Transport Protein 2b (NaPi2b) for the Treatment of Hyperphosphatemia” (J Med Chem, 2022).
Converted amounts (≈) assume the structure as drawn.

Key:
[1] = Oral bioavailability in CRL:CD(SD) rat at 30 mg/kg measured after 7 hrs by LC-MS/MS analysis; assay type: ADME, organism-based; details: in vivo
[2] = Inhibition of phosphate uptake in CRL:CD(SD) rat small intestine in at 0.1 mg treated through intrajejunal after 30 mins by In-situ closed-loop method; details: in vivo, other, 0.5 h
[3] = Drug concentration in CRL:CD(SD) rat plasma at 30 mg/kg, po measured after 7 hrs by LC-MS/MS analysis; assay type: ADME, organism-based
[4] = AUC (0 to t) in CRL:CD(SD) rat at 30 mg/kg, po measured after 7 hrs by LC-MS/MS analysis; assay type: ADME, organism-based; design: time 7 hrs, dose 30 mg/kg, route po; details: in vivo
[5] = Half life in CRL:CD(SD) rat at 30 mg/kg, po measured after 7 hrs by LC-MS/MS analysis; assay type: ADME, organism-based; details: in vivo
[6] = Solubility of compound in phosphate buffer at pH 7.4; assay type: physicochemical
[7] = Passive permeability of the compound across apical to basolateral at 100 uM incubated for 5 hrs by PAMPA assay; assay type: ADME; details: read-out: permeability
[8] = AUC(0 to infinity) in CRL:CD(SD) rat at 30 mg/kg, po measured after 7 hrs by LC-MS/MS analysis; assay type: ADME, organism-based; design: dose 30 mg/kg, time 7 hrs, route po; details: in vivo
[9] = Drug concentration in CRL:CD(SD) rat lung at 30 mg/kg, po measured after 7 hrs by LC-MS/MS analysis; assay type: ADME, organism-based; details: read-out: Ct
[10] = Cmax in CRL:CD(SD) rat at 30 mg/kg, po measured after 7 hrs by LC-MS/MS analysis; assay type: ADME, organism-based; design: dose 30 mg/kg, time 7 hrs, route po; details: in vivo
[11] = target: T1, Sodium-dependent phosphate transport protein 2B (Homo sapiens, UniProt O95436); assay: Inhibition of human NaPi2b expressed in KJMGER8 cells assessed as reduction in H2[33P]O4 uptake incubated for 60 mins by TopCount scintillation counting method; assay type: cell-based
T1 sequence (O95436 whole entry): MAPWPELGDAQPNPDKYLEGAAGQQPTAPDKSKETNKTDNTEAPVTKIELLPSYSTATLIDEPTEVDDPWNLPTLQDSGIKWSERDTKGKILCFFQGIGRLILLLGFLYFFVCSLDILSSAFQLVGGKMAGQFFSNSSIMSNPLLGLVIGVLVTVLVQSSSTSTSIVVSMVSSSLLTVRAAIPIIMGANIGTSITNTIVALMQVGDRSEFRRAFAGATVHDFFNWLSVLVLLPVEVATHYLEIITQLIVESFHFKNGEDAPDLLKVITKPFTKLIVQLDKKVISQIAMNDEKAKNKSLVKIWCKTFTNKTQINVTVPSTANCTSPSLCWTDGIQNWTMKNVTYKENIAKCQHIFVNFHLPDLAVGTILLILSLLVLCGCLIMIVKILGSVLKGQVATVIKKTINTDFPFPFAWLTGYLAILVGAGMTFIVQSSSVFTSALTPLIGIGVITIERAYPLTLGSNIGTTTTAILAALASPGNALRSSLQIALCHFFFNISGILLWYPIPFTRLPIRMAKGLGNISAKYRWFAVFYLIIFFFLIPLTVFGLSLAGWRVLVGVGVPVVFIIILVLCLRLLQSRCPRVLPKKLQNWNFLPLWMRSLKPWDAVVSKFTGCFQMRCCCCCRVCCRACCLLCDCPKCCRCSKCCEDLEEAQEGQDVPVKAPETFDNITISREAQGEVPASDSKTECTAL

[12] = Mean residence time in CRL:CD(SD) rat at 30 mg/kg, po measured after 7 hrs by LC-MS/MS analysis; assay type: ADME, organism-based; details: in vivo
[13] = Ratio of drug level in lung to plasma in CRL:CD(SD) rat at 30 mg/kg, po measured after 7 hrs by LC-MS/MS; assay type: ADME, organism-based; details: lung and plasma
[14] = Oral bioavailability in CRL:CD(SD) rat at 10 mg/kg by LC-MS/MS analysis; assay type: ADME, organism-based; details: in vivo
[15] = Drug concentration in CRL:CD(SD) rat lung at 30 mg/kg, po measured after 6 hrs by LC-MS/MS analysis; assay type: ADME, organism-based; details: read-out: Ct
[16] = Drug concentration in CRL:CD(SD) rat plasma at 30 mg/kg, po measured after 6 hrs by LC-MS/MS analysis; assay type: ADME, organism-based
[17] = AUC (0 to t) in CRL:CD(SD) rat at 10 mg/kg, po by LC-MS/MS analysis; assay type: ADME, organism-based; design: dose 10 mg/kg, route po; details: in vivo
[18] = Cmax in CRL:CD(SD) rat at 10 mg/kg, po by LC-MS/MS analysis; assay type: ADME, organism-based; design: dose 10 mg/kg, route po; details: in vivo

Row | solubility [6] [µM] | Papp at 5 h, 100 µM [7] [×10⁻⁶ cm/s] | IC50 [11] [nM] | Kp at 7 h [13] | SMILES | further results
1 | 122 (≈ 115 µg/mL) | < 0.025 | 64 |  | COCCN(CCOCCOCCOCCOCCOCCOCc1cccc(C(=O)Nc2sc3c(c2C(=O)N/N=C/c2ccc(Cl)c(C(F)(F)F)c2)CCC(C)(C)C3)c1)CC(=O)O | bioavailability [1]: 0.1%; inhibition (INH) [2]: 17%; concentration at 7 h [3]: < 0.3 ng/mL; AUC(0-t) at 7 h [4]: 0.665 ng·h/mL; half-life [5]: 3.53 h; AUC(0-inf) [8]: 2.62 ng·h/mL; concentration at 7 h [9]: < 1.5 ng/g; Cmax [10]: 0.444 ng/mL; MRT [12]: 5.25 h
2 | 55 (≈ 40.6 µg/mL) | < 0.025 | 40 | 130 | CCN(CC)CCOCCOCCOc1cccc(C(=O)Nc2sc3c(c2C(=O)N/N=C/c2ccc(Cl)c(C(F)(F)F)c2)CCC(C)(C)C3)c1 | 
3 | 76 (≈ 64.1 µg/mL) |  | 83 | 44 | CC1(C)CCc2c(sc(NC(=O)c3cccc(OCCOCCOCCOC[C@H](O)CN(CCO)CCO)c3)c2C(=O)N/N=C/c2ccc(Cl)c(C(F)(F)F)c2)C1 | 
4 | 0.1 (≈ 0.0619 µg/mL) |  | 87 |  | O=C(Nc1sc2c(c1C(=O)N/N=C/c1ccc(Cl)c(C(F)(F)F)c1)CCCC2)c1cccc(CN2CCC(O)CC2)c1 | 
5 |  |  |  | 428 | CCN(CC)C[C@@H](O)COCCOCCOCCOc1cccc(C(=O)Nc2sc3c(c2C(=O)N/N=C/c2ccc(Cl)c(C(F)(F)F)c2)CCC(C)(C)C3)c1 | 
6 | 82 (≈ 61.5 µg/mL) | 0.23 | 315 |  | CCN(CC)CCOCCOCCOc1cccc(C(=O)Nc2sc3c(c2C(=O)N/N=C/c2ccc(Cl)c(C(F)(F)F)c2)CCN(C2CC2)C3)c1 | 
7 |  |  |  |  | CCN(CC)CCCN(C)Cc1cccc(C(=O)Nc2sc3c(c2C(=O)N/N=C/c2ccc(Cl)c(C(F)(F)F)c2)CCN(C2CC2)C3)c1 | bioavailability [14]: 0.96%; concentration at 6 h [15]: 6350 ng/g; concentration at 6 h [16]: 1.86 ng/mL; AUC(0-t) [17]: 10.4 ng·h/mL; Cmax [18]: 3.59 ng/mL
